According to patent US9486447B2, “Compositions and methods for controlling neuronal excitation” (The General Hospital Corporation, priority 2011, dated 2016):

Key:
[1] = Reactive oxygen species generation (singlet oxygen sensor green, NBT); assay type: physicochemical
From the text: How might optovin activate TRPA1? When molecules absorb light, photons can excite electrons from their ground state to a […] via intersystem crossing^37. These photoactivated compounds can then undergo reactions by transferring energy or electrons to target molecules, including aqueous molecular oxygen. Optovin is a yellow-colored compound with peak absorbance at 415 nm (FIG. 4A). To determine if optovin is photochemically reactive, it was exposed to increasing intensities of 415 nm light and assayed for reactive oxygen species (ROS) generation.
Assay for singlet oxygen generation using singlet oxygen sensor green (SOSG) UV-vis absorption spectra were recorded at 20 uM in methanol using an Evolution 300 UV-Vis Spectrophotometer (Thermo Fisher Scientific Inc., Waltham, Mass.). 96-well black-sided plates were used for fluorescent probe experiments. SOSG (Molecular Probes Invitrogen, Eugene, Oreg.) as a 1 mM stock solution in DMF was added to give final concentration of 5 μM SOSG, to optovin and analogues dissolved as 5 μM solutions in 200 μL 50% H2O/CH3CN preloaded in 96-well plates. An Omnilux Clear-U LED light source (Photo Therapeutics Inc), Carlsbad, Calif.) that emits blue light 415-nm+15-nm as a homogeneous spot with an irradiance of 50 mW/cm^2 measured with a power meter (model DMM 199 with 201 standard head; Coherent, Santa Clara, Calif.) that covers an area of one half of a 96-well plate.
Fluorescence spectrophotometry was carried out with SpectraMax M5 plate reader (Molecular Devices, Sunnyvale, Calif.) using excitation and emission at 504 and 525-nm Fluorescence was read after each successive increment of blue light was delivered. As a positive control for a known photosensitizer that absorbs 415-nm light with a quantum yield of singlet oxygen of approximately 0.6 we used a conjugate between polyethylenimine and chlorin(e6) (PEI-ce6)^46.

[2] = tested on: BZP Rat Brain Site; experiment: NIMH PDSP binding assay; details: primary screening, mean of N = 4 determinations
From the text: (§1) To determine if optovin's mechanism of action could be predicted via behavioral profiling^30,32, optovin's behavioral profile was compared to the behavioral profiles of 700 annotated neuroactive compounds tested in triplicate. These compounds include ligands targeting the adrenergic, serotonergic, histaminergic, dopaminergic, cholinergic and glutamatergic pathways. […] To gain insight into optovin's mechanism of action, optovin and two active optovin analogs were profiled using the National Institutes of Mental Health Psychoactive Drug Screening Program (NIMH PDSP) to determine their activities against a panel of human and rodent CNS receptors, channels and transporters.
(§2) Activity determinations were generously provided by the National Institute of Mental Health's Psychoactive Drug Screening Program, Contract # HHSN-271-2008-00025-C(NIMH PDSP). Complete assay details are found on-line at: http://pdsp.med.unc.edu/UNC-CH %20Protocol %20Book.pdf

[3] = molecular target: 5-HT1D (Homo sapiens, UniProt P28221); experiment: NIMH PDSP binding assay; details: primary screening, mean of N = 4 determinations
Chain of 5-HT1D (P28221 whole entry, species assumed): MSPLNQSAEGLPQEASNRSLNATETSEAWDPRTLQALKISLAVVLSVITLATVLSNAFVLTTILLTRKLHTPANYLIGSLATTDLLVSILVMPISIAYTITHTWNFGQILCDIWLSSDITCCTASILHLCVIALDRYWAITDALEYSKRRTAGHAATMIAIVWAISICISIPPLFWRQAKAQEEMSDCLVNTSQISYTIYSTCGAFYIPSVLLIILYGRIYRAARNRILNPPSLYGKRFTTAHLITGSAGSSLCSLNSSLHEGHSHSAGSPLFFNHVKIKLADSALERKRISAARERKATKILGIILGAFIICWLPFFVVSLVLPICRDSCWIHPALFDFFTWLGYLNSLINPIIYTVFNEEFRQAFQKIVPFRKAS
From the text: as §1, §2

[4] = tested on: Sigma 1; experiment: NIMH PDSP binding assay; details: primary screening, mean of N = 4 determinations
From the text: as §1, §2

[5] = molecular target: Alpha2B (Homo sapiens, UniProt P18089); experiment: NIMH PDSP binding assay; details: primary screening, mean of N = 4 determinations
Chain of Alpha2B (P18089 whole entry): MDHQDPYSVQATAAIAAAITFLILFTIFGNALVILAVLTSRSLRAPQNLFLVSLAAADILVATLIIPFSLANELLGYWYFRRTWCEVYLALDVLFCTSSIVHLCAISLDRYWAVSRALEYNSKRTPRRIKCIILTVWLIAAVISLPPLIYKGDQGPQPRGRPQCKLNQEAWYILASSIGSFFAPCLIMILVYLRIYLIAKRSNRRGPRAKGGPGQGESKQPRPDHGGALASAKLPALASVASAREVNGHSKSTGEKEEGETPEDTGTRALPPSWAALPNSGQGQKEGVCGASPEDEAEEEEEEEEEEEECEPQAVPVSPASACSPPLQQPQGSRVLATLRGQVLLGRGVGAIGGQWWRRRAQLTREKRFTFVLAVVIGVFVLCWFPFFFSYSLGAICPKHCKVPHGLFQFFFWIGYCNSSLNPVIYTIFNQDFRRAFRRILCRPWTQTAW
From the text: as §1, §2

[6] = molecular target: 5-HT2C (Homo sapiens, UniProt P28335); experiment: NIMH PDSP binding assay; details: primary screening, mean of N = 4 determinations
Chain of 5-HT2C (P28335 33-458, species assumed): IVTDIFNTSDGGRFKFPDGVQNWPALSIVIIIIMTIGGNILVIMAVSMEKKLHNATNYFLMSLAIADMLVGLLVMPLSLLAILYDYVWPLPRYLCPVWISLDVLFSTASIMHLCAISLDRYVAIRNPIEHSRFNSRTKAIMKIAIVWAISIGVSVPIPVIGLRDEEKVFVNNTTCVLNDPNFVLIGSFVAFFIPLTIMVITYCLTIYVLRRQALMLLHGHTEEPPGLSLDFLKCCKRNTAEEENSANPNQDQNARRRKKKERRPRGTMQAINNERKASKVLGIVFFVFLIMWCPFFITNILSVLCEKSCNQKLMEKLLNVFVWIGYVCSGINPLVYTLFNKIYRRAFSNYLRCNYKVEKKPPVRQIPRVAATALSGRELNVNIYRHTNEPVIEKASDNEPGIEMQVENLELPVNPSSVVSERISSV
From the text: as §1, §2

[7] = molecular target: T1, KOR (Homo sapiens, UniProt P41145); experiment: NIMH PDSP binding assay; details: primary screening, mean of N = 4 determinations
T1 construct: NIMH PDSP
T1 sequence (P41145 whole entry): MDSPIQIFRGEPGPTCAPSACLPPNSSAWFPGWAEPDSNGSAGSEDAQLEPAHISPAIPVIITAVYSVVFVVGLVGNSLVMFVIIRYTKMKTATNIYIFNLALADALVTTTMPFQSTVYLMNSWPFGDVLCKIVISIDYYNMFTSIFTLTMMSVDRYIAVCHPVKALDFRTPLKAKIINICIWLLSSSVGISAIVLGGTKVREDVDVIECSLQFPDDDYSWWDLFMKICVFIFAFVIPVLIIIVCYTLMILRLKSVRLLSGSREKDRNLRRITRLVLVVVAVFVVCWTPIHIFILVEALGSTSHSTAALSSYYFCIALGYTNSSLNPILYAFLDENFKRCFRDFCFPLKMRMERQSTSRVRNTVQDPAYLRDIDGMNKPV
From the text: as §1, §2

[8] = molecular target: T2, M2 (Homo sapiens, UniProt P08172); experiment: NIMH PDSP binding assay; details: primary screening, mean of N = 4 determinations
T2 construct: NIMH PDSP
T2 sequence (P08172 whole entry): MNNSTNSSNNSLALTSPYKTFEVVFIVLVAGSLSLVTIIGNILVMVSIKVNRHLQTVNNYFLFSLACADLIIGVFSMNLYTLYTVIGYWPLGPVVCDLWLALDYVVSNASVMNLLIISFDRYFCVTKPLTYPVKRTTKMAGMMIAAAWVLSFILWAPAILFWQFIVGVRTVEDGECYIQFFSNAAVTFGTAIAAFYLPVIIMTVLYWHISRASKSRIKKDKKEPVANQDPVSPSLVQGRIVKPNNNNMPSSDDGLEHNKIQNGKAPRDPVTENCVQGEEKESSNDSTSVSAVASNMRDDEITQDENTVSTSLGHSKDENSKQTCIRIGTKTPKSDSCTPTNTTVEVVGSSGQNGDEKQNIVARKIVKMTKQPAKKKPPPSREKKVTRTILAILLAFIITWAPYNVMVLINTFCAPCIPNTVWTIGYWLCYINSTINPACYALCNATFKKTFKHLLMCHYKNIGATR
From the text: as §1, §2

[9] = molecular target: A2B4 (Rattus norvegicus, UniProt P12389+P12392); experiment: NIMH PDSP binding assay; details: primary screening, mean of N = 4 determinations
Chain of A2B4 (P12389 28-511): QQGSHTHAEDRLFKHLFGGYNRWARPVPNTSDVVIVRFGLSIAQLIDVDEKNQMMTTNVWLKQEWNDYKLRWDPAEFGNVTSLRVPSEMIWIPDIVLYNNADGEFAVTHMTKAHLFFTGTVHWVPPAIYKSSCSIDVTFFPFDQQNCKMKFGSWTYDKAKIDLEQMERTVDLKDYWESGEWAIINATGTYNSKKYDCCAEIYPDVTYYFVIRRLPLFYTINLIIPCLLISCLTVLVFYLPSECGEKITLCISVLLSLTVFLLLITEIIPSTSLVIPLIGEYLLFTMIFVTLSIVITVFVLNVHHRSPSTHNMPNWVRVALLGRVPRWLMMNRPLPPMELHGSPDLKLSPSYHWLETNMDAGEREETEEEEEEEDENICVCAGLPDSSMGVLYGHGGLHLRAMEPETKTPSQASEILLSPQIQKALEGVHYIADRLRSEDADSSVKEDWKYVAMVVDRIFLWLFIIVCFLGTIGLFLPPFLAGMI
Chain of A2B4 (P12392 21-495): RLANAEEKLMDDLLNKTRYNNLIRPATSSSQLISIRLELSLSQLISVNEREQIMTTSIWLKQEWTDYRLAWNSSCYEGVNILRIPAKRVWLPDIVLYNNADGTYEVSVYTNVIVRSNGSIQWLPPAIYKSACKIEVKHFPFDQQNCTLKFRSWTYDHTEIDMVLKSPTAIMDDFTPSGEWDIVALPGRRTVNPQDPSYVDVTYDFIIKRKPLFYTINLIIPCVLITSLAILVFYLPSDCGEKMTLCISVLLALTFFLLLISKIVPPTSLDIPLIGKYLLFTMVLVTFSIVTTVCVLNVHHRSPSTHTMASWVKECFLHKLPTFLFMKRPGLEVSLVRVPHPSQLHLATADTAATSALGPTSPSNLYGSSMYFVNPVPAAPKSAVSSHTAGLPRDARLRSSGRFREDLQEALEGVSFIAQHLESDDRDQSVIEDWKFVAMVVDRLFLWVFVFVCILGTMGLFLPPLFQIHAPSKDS
From the text: as §1, §2

[10] = molecular target: T3, D5 (Homo sapiens, UniProt P21918); experiment: NIMH PDSP binding assay; details: primary screening, mean of N = 4 determinations
T3 construct: NIMH PDSP
T3 sequence (P21918 whole entry): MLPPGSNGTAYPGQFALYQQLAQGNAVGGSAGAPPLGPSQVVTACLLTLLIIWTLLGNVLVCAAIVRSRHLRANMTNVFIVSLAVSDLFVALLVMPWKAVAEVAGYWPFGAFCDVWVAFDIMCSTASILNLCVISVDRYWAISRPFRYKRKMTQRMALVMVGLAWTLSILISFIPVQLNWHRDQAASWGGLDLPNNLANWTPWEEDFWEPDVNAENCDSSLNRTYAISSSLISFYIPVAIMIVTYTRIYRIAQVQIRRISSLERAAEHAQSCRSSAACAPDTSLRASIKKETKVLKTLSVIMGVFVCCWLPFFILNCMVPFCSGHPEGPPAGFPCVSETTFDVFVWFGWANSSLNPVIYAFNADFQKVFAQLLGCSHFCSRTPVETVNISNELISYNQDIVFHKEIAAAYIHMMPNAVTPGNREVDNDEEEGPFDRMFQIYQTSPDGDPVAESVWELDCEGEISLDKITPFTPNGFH
From the text: as §1, §2

[11] = molecular target: T4, hTRPA1 C633S/C856S double mutant (Homo sapiens, UniProt O75762, C633S/C856S); experiment: Calcium imaging of transfected HEK cells; assay type: cell-based; details: compared with WT channels
T4 construct: expressed in transfected cells; host or cells: HEK293
T4 sequence (O75762 whole entry C633S/C856S): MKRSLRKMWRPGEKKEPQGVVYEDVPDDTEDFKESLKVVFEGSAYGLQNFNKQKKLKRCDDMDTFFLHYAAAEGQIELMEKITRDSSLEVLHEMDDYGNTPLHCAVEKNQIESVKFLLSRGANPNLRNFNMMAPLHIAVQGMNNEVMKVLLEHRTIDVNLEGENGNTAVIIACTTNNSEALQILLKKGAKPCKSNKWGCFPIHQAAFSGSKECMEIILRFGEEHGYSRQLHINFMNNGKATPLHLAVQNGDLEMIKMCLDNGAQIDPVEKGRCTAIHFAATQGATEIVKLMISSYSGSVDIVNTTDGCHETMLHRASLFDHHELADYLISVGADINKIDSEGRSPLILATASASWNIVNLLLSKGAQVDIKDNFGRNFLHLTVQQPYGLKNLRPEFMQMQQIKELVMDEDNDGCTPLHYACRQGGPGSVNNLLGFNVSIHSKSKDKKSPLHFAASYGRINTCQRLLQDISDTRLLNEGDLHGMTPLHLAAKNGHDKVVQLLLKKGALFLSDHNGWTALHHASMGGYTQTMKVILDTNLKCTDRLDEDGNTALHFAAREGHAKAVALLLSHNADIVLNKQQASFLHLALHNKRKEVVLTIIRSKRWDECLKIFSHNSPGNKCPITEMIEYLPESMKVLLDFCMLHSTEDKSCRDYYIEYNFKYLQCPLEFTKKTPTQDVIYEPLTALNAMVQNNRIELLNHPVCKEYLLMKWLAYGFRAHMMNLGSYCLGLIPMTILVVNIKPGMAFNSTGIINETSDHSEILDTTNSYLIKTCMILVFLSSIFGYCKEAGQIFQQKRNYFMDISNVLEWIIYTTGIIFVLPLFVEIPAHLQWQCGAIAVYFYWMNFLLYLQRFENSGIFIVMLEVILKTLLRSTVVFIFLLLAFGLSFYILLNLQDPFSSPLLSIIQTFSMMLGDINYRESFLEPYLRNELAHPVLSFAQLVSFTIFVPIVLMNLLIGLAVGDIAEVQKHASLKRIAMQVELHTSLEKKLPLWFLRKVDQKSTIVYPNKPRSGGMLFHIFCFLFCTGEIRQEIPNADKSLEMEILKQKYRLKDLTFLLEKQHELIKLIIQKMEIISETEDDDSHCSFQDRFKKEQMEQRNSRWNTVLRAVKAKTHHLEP
Procedure: (§3) Reactive electrophilic compounds activate TRPA1 channels through the covalent modification of specific cysteine residues including those at amino acid positions 621, 633, and 856. Point mutations in these cysteines can reduce hTRPA1 activation by specific ligands without disrupting overall channel function^39,40. To determine if these cysteine residues are also important for TRPA1 activation by optovin, intracellular calcium levels were measured in cells transfected with wildtype and mutant hTRPA1 channels. […] Rhodanine and hydantoin are photoelectric moieties used in photovoltaic panels and other photochemical applications^41,42. Nevertheless, photosensitization alone is insufficient to grant optovin its unusual biological activity. For example, optovin is phenotypically unique compared to 171 additional rhodanine-containing compounds contained in the screening library (data not shown).
(§4) HEK293 cells were plated onto poly-lysine-coated glass bottom culture dishes (MatTek Corp), and grown in Dulbecco's Modified Eagle's Medium (DMEM, Sigma) supplemented with 10% fetal bovine serum and 100 U/mL penicillin and 100 μg/ml streptomycin. After 24 hrs, cells were transfected, according to manufacturer's instructions, in Opti-MEM media, using 4 μl lipofectamine 2000 (Invitrogen), 0.5 ug EGFP in pcDNA, and 0.3 μg TrpA1 DNA per dish. Media was replaced after 2 hours, and cells were cultured for an additional 17 hours. As previously described for neurons, HEK cells were washed with assay buffer (HBSS Gibco 14025, supplemented with 9 mM HEPES, 11 mM D-glucose, 0.1% fatty-acid free BSA, pH 7.3) and incubated for 1 h with 2 μM Fura2-AM (Invitrogen) with 0.2% pluronic (Invitrogen) in assay buffer in the dark at room temperature. The cells were then washed with assay buffer and allowed to equilibrate at room temperature for 30 min prior to imaging. At the start of the imaging session for each dish, cells were replaced with DMSO-assay buffer. After 50 seconds of imaging, assay buffer was aspirated by hand, and replaced with 100 μM optovin dissolved in the DMSO-assay buffer solution. […]

[12] = molecular target: T5, hTRPA1 C633S (Homo sapiens, UniProt O75762, C633S); experiment: Calcium imaging of transfected HEK cells; assay type: cell-based; details: compared with WT channels
T5 construct: expressed in transfected cells; host or cells: HEK293
T5 sequence (O75762 whole entry C633S): as the sequence (O75762 whole entry C633S/C856S) above, with S856C counted along it
Procedure: as §3, §4

[13] = molecular target: T6, hTRPA1 C621S (Homo sapiens, UniProt O75762, C621S); experiment: Calcium imaging of transfected HEK cells; assay type: cell-based; details: compared with WT channels
T6 construct: expressed in transfected cells; host or cells: HEK293
T6 sequence (O75762 whole entry C621S): as the sequence (O75762 whole entry C633S/C856S) above, with C621S, S633C, S856C counted along it
Procedure: as §3, §4

## Cc1cc(/C=C2/SC(=S)NC2=O)c(C)n1-c1cccnc1 [optovin]
[1]; 415 nm light
  hydroxyl radical and superoxide generation: neither hydroxyl radicals nor superoxide
  singlet oxygen generation: generates singlet oxygen
[1]; estimated by comparison with PEI-ce6
  singlet oxygen quantum yield: about 0.04
[2]
  Avg % inhibition (BZP Rat Brain Site): 5.3%
[3]
  Avg % inhibition (5-HT1D): 12.9%
[4]
  Avg % inhibition (Sigma 1): −13.7%
[5]
  Avg % inhibition (Alpha2B): 8.9%
[6]
  Avg % inhibition (5-HT2C): 7.0%
[7]
  Avg % inhibition (KOR): 10.9%
[8]
  Avg % inhibition (M2): 6.6%
[9]
  Avg % inhibition (A2B4): −7.8%
[10]
  Avg % inhibition (D5): 13.6%
[11]
  response to light and optovin (intracellular calcium): significantly decreased response
[12]
  response to light and optovin (intracellular calcium): significantly decreased response
[13]
  response to light and optovin (intracellular calcium): significantly decreased response
